Measured values as given in patent US20240270762A1, “PENICILLIN-BINDING PROTEIN INHIBITORS” (priority 2021, published 2024).
pEC50: −log10 of the molar value. Converted amounts (≈) assume the structure as drawn.

Columns and labels:
A. baumannii PBP1a = target: T1, A. baumannii PBP1a (Acinetobacter baumannii, UniProt A0ABX6CK30); test: Bocillin-FL competition binding via gel filtration, A. baumannii PBP1a; settings: competition binding assay using Bocillin-FL via gel filtration; read-out: A. baumannii PBP1a Potency
T1 sequence (A0ABX6CK30 1-851): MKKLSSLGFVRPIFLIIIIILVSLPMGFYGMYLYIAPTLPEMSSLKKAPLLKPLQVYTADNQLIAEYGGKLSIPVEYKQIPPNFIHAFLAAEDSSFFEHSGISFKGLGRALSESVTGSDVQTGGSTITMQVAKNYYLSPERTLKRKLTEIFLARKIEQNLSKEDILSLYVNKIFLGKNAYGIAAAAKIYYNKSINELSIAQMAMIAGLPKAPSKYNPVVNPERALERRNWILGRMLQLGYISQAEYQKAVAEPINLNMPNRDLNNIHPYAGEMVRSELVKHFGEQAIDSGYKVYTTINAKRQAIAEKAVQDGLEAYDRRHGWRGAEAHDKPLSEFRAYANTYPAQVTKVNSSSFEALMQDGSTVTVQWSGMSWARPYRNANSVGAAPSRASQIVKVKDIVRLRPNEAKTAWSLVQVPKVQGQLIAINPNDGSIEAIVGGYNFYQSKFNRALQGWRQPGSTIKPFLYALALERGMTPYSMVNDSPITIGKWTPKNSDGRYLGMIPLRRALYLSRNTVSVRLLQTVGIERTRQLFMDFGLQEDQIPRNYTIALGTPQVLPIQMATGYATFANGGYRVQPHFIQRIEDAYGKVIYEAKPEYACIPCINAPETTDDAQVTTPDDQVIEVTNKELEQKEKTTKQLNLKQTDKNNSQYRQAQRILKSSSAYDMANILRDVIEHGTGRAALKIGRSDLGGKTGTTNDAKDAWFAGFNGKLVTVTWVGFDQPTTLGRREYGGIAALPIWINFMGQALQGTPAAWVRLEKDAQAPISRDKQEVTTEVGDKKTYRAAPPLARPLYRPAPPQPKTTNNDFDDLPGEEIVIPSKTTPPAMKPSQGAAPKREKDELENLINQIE
How it was run: (§1)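 Competitive equilibrium binding with Bocillin-FL reporter: PBP pre-incubated with inhibitor dilutions, Bocillin-FL added, 15 min incubation. Labelled enzyme isolated by size-exclusion spin plates, fluorescence measured; EC50 obtained by fitting bound fraction against inhibitor concentration with a Hill-coefficient model.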

A. baumannii PBP2 = A. baumannii PBP2 (Acinetobacter baumannii, UniProt D0C8Z9); test: Bocillin-FL competition binding via gel filtration, A. baumannii PBP2
How it was run: as §1

P. aeruginosa ATCC 27853 = test: microbe, parasite or virus in culture; format: cell-based; settings: Pseudomonas aeruginosa, ATCC27853, read-out: Minimum inhibitory concentration, P. aeruginosa ATCC 27853
A. baumannii ATCC 17978 = test: microbe, parasite or virus in culture; format: cell-based; settings: Acinetobacter baumannii, ATCC17978, read-out: MIC, A. baumannii ATCC 17978
A. baumannii ATCC 19606 = test: microbe, parasite or virus in culture; format: cell-based; settings: Acinetobacter baumannii, ATCC19606, read-out: MIC, A. baumannii ATCC 19606
[1] = test system: P. aeruginosa (ΔmexAB-oprM); test: Broth microdilution MIC in iron-depleted CAMHB (IDM); format: cell-based; settings: Pseudomonas aeruginosa; iron-depleted CAMHB (IDM); […]; read-out: Minimum inhibitory concentration, P. aeruginosa ΔmexAB-oprM
P. aeruginosa CDC-0054 = test: microbe, parasite or virus in culture; format: cell-based; settings: Pseudomonas aeruginosa, CDC0054, read-out: Minimum inhibitory concentration, P. aeruginosa CDC-0054
A. baumannii 1258916 = test: microbe, parasite or virus in culture; format: cell-based, Acinetobacter baumannii; settings: Acinetobacter baumannii, 1258916, read-out: MIC, A. baumannii 1258916
A. baumannii CDC-0036 = test: microbe, parasite or virus in culture; format: cell-based; settings: Acinetobacter baumannii, CDC0036, read-out: MIC, A. baumannii CDC-0036
A. baumannii CDC-0045 = test: microbe, parasite or virus in culture; format: cell-based; settings: Acinetobacter baumannii, CDC0045, read-out: MIC, A. baumannii CDC-0045
A. baumannii CDC-0083 = test: microbe, parasite or virus in culture; format: cell-based; settings: Acinetobacter baumannii, CDC0083, read-out: MIC, A. baumannii CDC-0083
[2] = test system: B. humptydooensis ATCC BAA-2767; test: microbe, parasite or virus in culture; format: cell-based; settings: Burkholderia humptydooensis, ATCCBAA2767, read-out: Minimum inhibitory concentration (MIC), B. humptydooensis ATCC BAA-2767
P. aeruginosa CDC-0110 = test: microbe, parasite or virus in culture; format: cell-based; settings: Pseudomonas aeruginosa, CDC0110, read-out: Minimum inhibitory concentration, P. aeruginosa CDC-0110

A. baumannii PBP2, sequence (D0C8Z9 whole entry): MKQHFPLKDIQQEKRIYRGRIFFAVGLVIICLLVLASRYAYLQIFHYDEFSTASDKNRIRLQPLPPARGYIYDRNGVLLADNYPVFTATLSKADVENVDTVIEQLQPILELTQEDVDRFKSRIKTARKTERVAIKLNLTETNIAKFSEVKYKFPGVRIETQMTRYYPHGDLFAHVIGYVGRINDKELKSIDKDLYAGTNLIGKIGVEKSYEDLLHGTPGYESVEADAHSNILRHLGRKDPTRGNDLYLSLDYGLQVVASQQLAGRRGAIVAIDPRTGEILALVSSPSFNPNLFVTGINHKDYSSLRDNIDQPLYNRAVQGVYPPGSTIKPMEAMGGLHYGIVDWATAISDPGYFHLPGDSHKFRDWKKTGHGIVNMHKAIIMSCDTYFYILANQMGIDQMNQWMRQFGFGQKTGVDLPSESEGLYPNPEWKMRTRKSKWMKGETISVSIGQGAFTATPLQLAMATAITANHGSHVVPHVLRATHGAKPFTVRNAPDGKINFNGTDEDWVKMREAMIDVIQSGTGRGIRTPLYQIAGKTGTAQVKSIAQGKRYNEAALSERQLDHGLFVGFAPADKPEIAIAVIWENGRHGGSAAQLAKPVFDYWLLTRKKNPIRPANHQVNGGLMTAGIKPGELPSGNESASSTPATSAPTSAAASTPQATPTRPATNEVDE

O=C(O)c1c(F)ccc2c1OB(O)[C@@H](NC(=O)C(NC(=O)N1CCN(C3CCN(C(=O)c4c(F)ccc(O)c4F)CC3)C(=O)C1=O)c1cc(F)c(O)c(O)c1Cl)C2 (stereo partly drawn) [Example 308, (3R)-3-(2-(2-chloro-5-fluoro-3,4-dihydroxyphenyl)-2-(4-(1-(2,6-difluoro-3-hydroxybenzoyl)piperidin-4-yl)-2,3-dioxopiperazine-1-carboxamido)acetamido)-7-fluoro-2-hydroxy-3,4-dihydro-2H-benzo[e][1,2]oxaborinine-8-carboxylic acid]
pEC50 (A. baumannii PBP1a): 4.30 to 5.00 | pEC50 (A. baumannii PBP2): > 5.00 | MIC (P. aeruginosa ATCC 27853): < 1 µg/mL | MIC (A. baumannii ATCC 17978): < 1 µg/mL | MIC (A. baumannii ATCC 19606): < 1 µg/mL | MIC [1]: < 1 µg/mL | MIC (P. aeruginosa CDC-0054): < 1 µg/mL | MIC (A. baumannii 1258916): < 1 µg/mL | MIC (A. baumannii CDC-0036): 2 to 4 µg/mL (≈ 2.43 to 4.87 µM) | MIC (A. baumannii CDC-0045): < 1 µg/mL | MIC (A. baumannii CDC-0083): < 1 µg/mL | MIC [2]: 2 to 4 µg/mL (≈ 2.43 to 4.87 µM) | MIC (P. aeruginosa CDC-0110): < 1 µg/mL

O=C(NCCCN1CCN(C(=O)N[C@@H](C(=O)N[C@H]2Cc3ccc(F)c(C(=O)O)c3OB2O)c2cc(F)c(O)c(O)c2Cl)C(=O)C1=O)c1cc(F)nc(F)c1 (racemic) [Example 401]
pEC50 (A. baumannii PBP1a): > 5.00 | pEC50 (A. baumannii PBP2): 4.30 to 5.00 | MIC (P. aeruginosa ATCC 27853): 2 to 4 µg/mL (≈ 2.56 to 5.12 µM) | MIC (A. baumannii ATCC 17978): < 1 µg/mL | MIC (A. baumannii ATCC 19606): < 1 µg/mL | MIC [1]: < 1 µg/mL | MIC (P. aeruginosa CDC-0054): < 1 µg/mL | MIC (A. baumannii 1258916): < 1 µg/mL | MIC (A. baumannii CDC-0036): 2 to 4 µg/mL (≈ 2.56 to 5.12 µM) | MIC (A. baumannii CDC-0045): < 1 µg/mL | MIC (A. baumannii CDC-0083): 2 to 4 µg/mL (≈ 2.56 to 5.12 µM) | MIC [2]: > 128 µg/mL | MIC (P. aeruginosa CDC-0110): < 1 µg/mL

O=C(NCCCN1CCN(C(=O)NC(C(=O)N[C@H]2Cc3ccc(F)c(C(=O)O)c3OB2O)c2cc(F)c(O)c(O)c2Cl)C(=O)C1=O)c1cc(F)ncc1F (mixture of isomers) [Example 405]
pEC50 (A. baumannii PBP1a): 4.30 to 5.00 | pEC50 (A. baumannii PBP2): 4.30 to 5.00 | MIC (P. aeruginosa ATCC 27853): 2 to 4 µg/mL | MIC (A. baumannii ATCC 17978): < 1 µg/mL | MIC (A. baumannii ATCC 19606): < 1 µg/mL | MIC [1]: < 1 µg/mL | MIC (P. aeruginosa CDC-0054): 2 to 4 µg/mL | MIC (A. baumannii 1258916): 2 to 4 µg/mL | MIC (A. baumannii CDC-0036): 2 to 4 µg/mL | MIC (A. baumannii CDC-0045): < 1 µg/mL | MIC (A. baumannii CDC-0083): < 1 µg/mL | MIC [2]: 2 to 4 µg/mL | MIC (P. aeruginosa CDC-0110): 2 to 4 µg/mL

O=C(NCCCN1CCN(C(=O)NC(C(=O)N[C@H]2Cc3ccc(F)c(C(=O)O)c3OB2O)c2cc(F)c(O)c(O)c2Cl)C(=O)C1=O)c1cccc(O)c1F (stereo partly drawn) [Example 406, (3R)-3-(2-(2-chloro-5-fluoro-3,4-dihydroxyphenyl)-2-(4.-(3-(2-fluoro-3-hydroxybenzamido)propyl)-2,3-dioxopiperazine-1-carboxamido)acetamido)-7-fluoro-2-hydroxy-3,4-dihydro-2H-benzo[e][1,2]oxaborinine-8-carboxylic acid]
pEC50 (A. baumannii PBP1a): > 5.00 | pEC50 (A. baumannii PBP2): 4.30 to 5.00 | MIC (P. aeruginosa ATCC 27853): < 1 µg/mL | MIC (A. baumannii ATCC 17978): < 1 µg/mL | MIC (A. baumannii ATCC 19606): < 1 µg/mL | MIC [1]: < 1 µg/mL | MIC (P. aeruginosa CDC-0054): < 1 µg/mL | MIC (A. baumannii 1258916): 2 to 4 µg/mL (≈ 2.57 to 5.14 µM) | MIC (A. baumannii CDC-0036): 2 to 4 µg/mL (≈ 2.57 to 5.14 µM) | MIC (A. baumannii CDC-0045): < 1 µg/mL | MIC (A. baumannii CDC-0083): < 1 µg/mL | MIC [2]: 8 to 16 µg/mL (≈ 10.3 to 20.6 µM) | MIC (P. aeruginosa CDC-0110): < 1 µg/mL

O=C(NCCCN1CCN(C(=O)NC(C(=O)N[C@H]2Cc3ccc(F)c(C(=O)O)c3OB2O)c2cc(F)c(O)c(O)c2Cl)C(=O)C1=O)c1ccc(O)c(F)c1F (stereo partly drawn) [Example 306, (3R)-3-(2-(2-chloro-5-fluoro-3,4-dihydroxyphenyl)-2-(4-(3-(2,3-difluoro-4-hydroxybenzamido)propyl)-2,3-dioxopiperazine-1-carboxamido)acetamido)-7-fluoro-2-hydroxy-3,4-dihydro-2H-benzo[e][1,2]oxaborinine-8-carboxylic acid]
pEC50 (A. baumannii PBP1a): > 5.00 | pEC50 (A. baumannii PBP2): > 5.00 | MIC (P. aeruginosa ATCC 27853): 2 to 4 µg/mL (≈ 2.51 to 5.03 µM) | MIC (A. baumannii ATCC 17978): < 1 µg/mL | MIC (A. baumannii ATCC 19606): < 1 µg/mL | MIC [1]: < 1 µg/mL | MIC (P. aeruginosa CDC-0054): 2 to 4 µg/mL (≈ 2.51 to 5.03 µM) | MIC (A. baumannii 1258916): < 1 µg/mL | MIC (A. baumannii CDC-0036): 2 to 4 µg/mL (≈ 2.51 to 5.03 µM) | MIC (A. baumannii CDC-0045): < 1 µg/mL | MIC (A. baumannii CDC-0083): 2 to 4 µg/mL (≈ 2.51 to 5.03 µM) | MIC [2]: 2 to 4 µg/mL (≈ 2.51 to 5.03 µM) | MIC (P. aeruginosa CDC-0110): < 1 µg/mL

O=C(NCCCN1CCN(C(=O)NC(C(=O)N[C@H]2Cc3ccc(F)c(C(=O)O)c3OB2O)c2cc(F)c(O)c(O)c2Cl)C(=O)C1=O)c1cc(O)c(F)c(O)c1F (stereo partly drawn) [Example 415, (3R)-3-(2-(2-chloro-5-fluoro-3,4-dihydroxyphenyl)-2-(4-(3-(2,4-difluoro-3,5-dihydroxybenzamido)propyl)-2,3-dioxopiperazine-1-carboxamido)acetamido)-7-fluoro-2-hydroxy-3,4-dihydro-2H-benzo[e][1,2]oxaborinine-8-carboxylic acid]
pEC50 (A. baumannii PBP1a): > 5.00 | pEC50 (A. baumannii PBP2): 4.30 to 5.00 | MIC (P. aeruginosa ATCC 27853): < 1 µg/mL | MIC (A. baumannii ATCC 17978): < 1 µg/mL | MIC (A. baumannii ATCC 19606): < 1 µg/mL | MIC [1]: < 1 µg/mL | MIC (P. aeruginosa CDC-0054): < 1 µg/mL | MIC (A. baumannii 1258916): 2 to 4 µg/mL (≈ 2.46 to 4.93 µM) | MIC (A. baumannii CDC-0036): 2 to 4 µg/mL (≈ 2.46 to 4.93 µM) | MIC (A. baumannii CDC-0045): 2 to 4 µg/mL (≈ 2.46 to 4.93 µM) | MIC (A. baumannii CDC-0083): 2 to 4 µg/mL (≈ 2.46 to 4.93 µM) | MIC [2]: 8 to 16 µg/mL (≈ 9.85 to 19.7 µM) | MIC (P. aeruginosa CDC-0110): < 1 µg/mL

O=C(O)c1c(F)ccc2c1OB(O)[C@@H](NC(=O)C(NC(=O)N1CCN(C3CCN(S(=O)(=O)c4ccc(O)cc4)CC3)C(=O)C1=O)c1cc(F)c(O)c(O)c1Cl)C2 (stereo partly drawn) [Example 429, (3R)-3-(2-(2-chloro-5-fluoro-3,4-dihydroxyphenyl)-2-(4-(1-((4-hydroxyphenyl)sulfonyl)piperidin-4-yl)-2,3-dioxopiperazine-1-carboxamido)acetamido)-7-fluoro-2-hydroxy-3,4-dihydro-2H-benzo[e][1,2]oxaborinine-8-carboxylic acid]
pEC50 (A. baumannii PBP1a): > 5.00 | pEC50 (A. baumannii PBP2): > 5.00 | MIC (P. aeruginosa ATCC 27853): 2 to 4 µg/mL (≈ 2.43 to 4.87 µM) | MIC (A. baumannii ATCC 17978): < 1 µg/mL | MIC (A. baumannii ATCC 19606): < 1 µg/mL | MIC [1]: < 1 µg/mL | MIC (P. aeruginosa CDC-0054): < 1 µg/mL | MIC (A. baumannii 1258916): < 1 µg/mL | MIC (A. baumannii CDC-0036): 2 to 4 µg/mL (≈ 2.43 to 4.87 µM) | MIC (A. baumannii CDC-0045): < 1 µg/mL | MIC (A. baumannii CDC-0083): 8 to 16 µg/mL (≈ 9.73 to 19.5 µM) | MIC [2]: > 128 µg/mL | MIC (P. aeruginosa CDC-0110): < 1 µg/mL
